# Experimental data as given in US12187728B2 (Raze Therapeutics, Inc., priority 2015, dated 2025).
# Biological target: T1, Human MTHFD2 (Homo sapiens, UniProt P13995)
# T1 construct: residues 36-350 in Uniport ID P13995; His6 (N); made in house; host or cells: E. coli
# T1 sequence (P13995 36-350): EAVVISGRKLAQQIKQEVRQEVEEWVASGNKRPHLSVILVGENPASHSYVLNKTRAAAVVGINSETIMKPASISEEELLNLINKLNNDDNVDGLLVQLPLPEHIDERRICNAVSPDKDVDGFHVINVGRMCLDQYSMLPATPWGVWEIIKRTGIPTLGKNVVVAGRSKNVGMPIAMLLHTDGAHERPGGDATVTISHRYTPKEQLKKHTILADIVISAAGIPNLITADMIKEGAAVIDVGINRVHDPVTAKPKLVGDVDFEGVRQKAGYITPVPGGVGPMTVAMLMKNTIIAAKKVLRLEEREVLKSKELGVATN
# Assay: MTHFD2 Activity Assay (dehydrogenase activity, diaphorase/resazurin coupled fluorescence)
# Assay type: biochemical
# Conditions: inhibitory activity (IC50 and/or binding constant); 0.2 nM MTHFD2, 11 concentrations
# How it was run: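 Resorufin fluorescence (ex 525, em 598 nm) reports NADH formed by the dehydrogenase via diaphorase coupling. Enzyme (0.2 nM, residues 36-350, N-His6) sat with compound 15 min before 70 μM CH2-THF and 1 mM NAD+ started a 30 min reaction. IC50s come from 4-parameter fits over 11 concentrations.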
row,Structure (SMILES),IC50
1,"Cc1ccc2[nH]c(Cn3c(=O)c4c(ncn4C)n(C)c3=O)cc2c1 [Example 236, 3,7-dimethyl-1-((5-methyl-1H-indol-2-yl)methyl)-1H-purine-2,6(3H,7H)-dione]",1 to 5 µM
2,"Cn1c(NCc2ccncc2)nc2c1c(=O)n(Cc1ccc(Cl)c(Cl)c1)c(=O)n2C [Example 118, 1-(3,4-dichlorobenzyl)-3,7-dimethyl-8-(pyridin-4-ylmethylamino)-1H-purine-2,6(3H,7H)-dione]",1 to 5 µM
3,"C[C@@H](Nc1nc2c(c(=O)n(Cc3ccc(Cl)c(Cl)c3)c(=O)n2C)n1C)C(=O)O [Example 129, (R)-2-(1-(3,4-dichlorobenzyl)-3,7-dimethyl-2,6-dioxo-2,3,6,7-tetrahydro-1H-purin-8-ylamino)propanoic acid]",1 to 5 µM
4,"Cn1c(Nc2ccc3c(c2)CC(CO)C3)nc2c1c(=O)n(Cc1ccc(Cl)c(Cl)c1)c(=O)n2C (stereo not shown) [Example 324, 1-(3,4-dichlorobenzyl)-8-((2-(hydroxymethyl)-2,3-dihydro-1H-inden-5-yl)amino)-3,7-dimethyl-1H-purine-2,6(3H,7H)-dione]",1 to 5 µM
5,"Cn1c(Nc2ccc(-c3ccccc3)cn2)nc2c1c(=O)n(Cc1cc3c(Cl)cccc3[nH]1)c(=O)n2C [Example 400, 1-[(4-chloro-1H-indol-2-yl)methyl]-3,7-dimethyl-8-[(5-phenyl-2-pyridyl)amino]purine-2,6-dione]",1 to 5 µM
6,"C[C@H](O)CNc1nc2c(c(=O)n(Cc3ccc(Cl)c(F)c3)c(=O)n2C)n1C [Example 25, 1-[(4-chloro-3-fluorophenyl)methyl]-8-{[(2S)-2-hydroxypropyl]amino}-3,7-dimethyl-2,3,6,7-tetrahydro-1H-purine-2,6-dione]",1 to 5 µM
7,"Cn1cnc2c1c(=O)n(Cc1ccc3cc[nH]c3c1)c(=O)n2C [Example 263, 1-((1H-indol-6-yl)methyl)-3,7-dimethyl-1H-purine-2,6(3H,7H)-dione]",5 to 10 µM
8,"COc1ccc2[nH]c(Cn3c(=O)c4c(ncn4C)n(C)c3=O)cc2c1 [Example 239, 1-((5-methoxy-1H-indol-2-yl)methyl)-3,7-dimethyl-1H-purine-2,6(3H,7H)-dione]",1 to 5 µM
9,"Cn1c(N[C@H]2C[C@H](CO)C2)nc2c1c(=O)n(Cc1cc3ccccc3[nH]1)c(=O)n2C [Example 295, 1-((1H-indol-2-yl)methyl)-8-((1R,3R)-3-(hydroxymethyl)cyclobutylamino)-3,7-dimethyl-1H-purine-2,6(3H,7H)-dione]",0.01 to 1 µM
10,"Cn1c(N[C@@H]2CC[C@H](C(=O)O)C2)nc2c1c(=O)n(Cc1ccc(C(F)(F)F)cc1)c(=O)n2C [Example 77, (1S,3R)-3-[(3,7-dimethyl-2,6-dioxo-1-{[4-(trifluoromethyl)phenyl]methyl}-2,3,6,7-tetrahydro-1H-purin-8-yl)amino]cyclopentane-1-carboxylic acid]",1 to 5 µM
11,"Cn1cnc2c1c(=O)n(Cc1cc3cc(Cl)ccc3[nH]1)c(=O)n2C [Example 240, 1-((5-chloro-1H-indol-2-yl)methyl)-3,7-dimethyl-1H-purine-2,6(3H,7H)-dione]",1 to 5 µM
12,"Cn1c(Cn2c(=O)c3c(nc(CCN4CCOCC4)n3C)n(C)c2=O)cc2cc(Cl)ccc21 [Example 225, 1-((5-chloro-1-methyl-1H-indol-2-yl)methyl)-3,7-dimethyl-8-(2-morpholinoethyl)-1H-purine-2,6(3H,7H)-dione]",0.01 to 1 µM
13,"C[C@@H](O)CNc1nc2c(c(=O)n(Cc3ccc(Cl)c(F)c3)c(=O)n2C)n1C [Example 24, 1-[(4-chloro-3-fluorophenyl)methyl]-8-{[(2R)-2-hydroxypropyl]amino}-3,7-dimethyl-2,3,6,7-tetrahydro-1H-purine-2,6-dione]",5 to 10 µM
14,"Cn1c(N[C@@H]2CC[C@H](C(=O)O)C2)nc2c1c(=O)n(Cc1ccc(Cl)c(Cl)c1)c(=O)n2C [Example 50, (1S,3R)-3-({1-[(3,4-dichlorophenyl)methyl]-3,7-dimethyl-2,6-dioxo-2,3,6,7-tetrahydro-1H-purin-8-yl}amino)cyclopentane-1-carboxylic acid]",0.01 to 1 µM

# Next, values leading:
row,IC50,Structure (SMILES)
1,0.01 to 1 µM,"COc1nc2c(c(=O)n(Cc3cc4cccc(Cl)c4n3C)c(=O)n2C)n1C [Example 433, 1-[(7-chloro-1-methyl-indol-2-yl)methyl]-8-methoxy-3,7-dimethyl-purine-2,6-dione]"
2,0.01 to 1 µM,"Cn1c(Cn2c(=O)c3c(nc(-n4nccc4N)n3C)n(C)c2=O)cc2cc(Cl)ccc21 [Example 220, 8-(5-amino-1H-pyrazol-1-yl)-1-((5-chloro-1-methyl-1H-indol-2-yl)methyl)-3,7-dimethyl-1H-purine-2,6(3H,7H)-dione]"
3,0.01 to 1 µM,"Cn1c(Nc2ccncc2)nc2c1c(=O)n(Cc1[nH]c3ccccc3c1Cl)c(=O)n2C [Example 311, 1-((3-chloro-1H-indol-2-yl)methyl)-3,7-dimethyl-8-(pyridin-4-ylamino)-1H-purine-2,6(3H,7H)-dione]"
4,0.01 to 1 µM,"Cn1c(/C(=N/O)c2ccncc2)nc2c1c(=O)n(Cc1cc3c(Cl)cccc3[nH]1)c(=O)n2C [Example 468, (E)-1-((4-chloro-1H-indol-2-yl)methyl)-8-((hydroxyimino)(pyridin-4-yl)methyl)-3,7-dimethyl-1H-purine-2,6(3H,7H)-dione or (Z)-1-((4-chloro-1H-indol-2-yl)methyl)-8-((hydroxyimino)(pyridin-4-yl)methyl)-3,7-dimethyl-1H-purine-2,6(3H,7H)-dione]"
5,0.01 to 1 µM,"Cc1ccc2[nH]c(Cn3c(=O)c4c(nc(Nc5ccncn5)n4C)n(C)c3=O)cc2c1 [Example 205, 3,7-dimethyl-1-((5-methyl-1H-indol-2-yl)methyl)-8-(pyrimidin-4-ylamino)-1H-purine-2,6(3H,7H)-dione]"
6,0.01 to 1 µM,"Cn1c(Cn2c(=O)c3c(nc(Nc4cc[nH]c(=O)n4)n3C)n(C)c2=O)cc2cc(Cl)ccc21 [Example 224, 1-((5-chloro-1-methyl-1H-indol-2-yl)methyl)-3,7-dimethyl-8-(2-oxo-1,2-dihydropyrimidin-4-ylamino)-1H-purine-2,6(3H,7H)-dione]"
7,0.01 to 1 µM,"Cn1c(C(N)C2CCOCC2)nc2c1c(=O)n(Cc1cc3c(Cl)cccc3[nH]1)c(=O)n2C (stereo not shown) [Example 454, 8-[amino(tetrahydropyran-4-yl)methyl]-1-[(4-chloro-1H-indol-2-yl)methyl]-3,7-dimethyl-purine-2,6-dione]"
8,0.01 to 1 µM,"Cn1c(N[C@@H]2CCCNC2)nc2c1c(=O)n(Cc1ccc(Cl)c(Cl)c1)c(=O)n2C [Example 69, 1-[(3,4-dichlorophenyl)methyl]-3,7-dimethyl-8-{[(3R)-piperidin-3-yl]amino}-2,3,6,7-tetrahydro-1H-purine-2,6-dione]"
9,0.01 to 1 µM,"Cn1c(N[C@@H]2CCC[C@@H]2C(=O)O)nc2c1c(=O)n(Cc1ccc(Cl)c(Cl)c1)c(=O)n2C [Example 111, (1S,2R)-2-(1-(3,4-dichlorobenzyl)-3,7-dimethyl-2,6-dioxo-2,3,6,7-tetrahydro-1H-purin-8-ylamino)cyclopentanecarboxylic acid]"
10,0.01 to 1 µM,"C[C@@H](N)c1nc2c(c(=O)n(Cc3cc4c(Cl)cccc4[nH]3)c(=O)n2C)n1C (single isomer, unassigned) [Example 436, (R)-8-(1-aminoethyl)-14(4-chloro-1H-indol-2-yl)methyl)-3,7-dimethyl-1H-purine-2,6(3H,7H)-dione or (S)-8-(1-aminoethyl)-1-((4-chloro-1H-indol-2-yl)methyl)-3,7-dimethyl-1H-purine-2,6(3H,7H)-dione]"
11,0.01 to 1 µM,"Cn1c(N[C@H]2CC[C@@H](O)C2)nc2c1c(=O)n(Cc1cc3cc(Cl)ccc3[nH]1)c(=O)n2C (racemic) [Example 175, (±)-1-((5-chloro-1H-indol-2-yl)methyl)-8-((cis)-3-hydroxycyclopentylamino)-3,7-dimethyl-1H-purine-2,6(3H,7H)-dione]"
12,0.01 to 1 µM,"Cn1c(C2CCCN2)nc2c1c(=O)n(Cc1cc3c(Cl)cccc3[nH]1)c(=O)n2C (stereo not shown) [Example 424, 1-[(4-chloro-1H-indol-2-yl)methyl]-3,7-dimethyl-8-pyrrolidin-2-yl-purine-2,6-dione]"
13,0.01 to 1 µM,"Cn1c(C(N)CO)nc2c1c(=O)n(Cc1cc3c(Cl)cccc3[nH]1)c(=O)n2C (stereo not shown) [Example 458, 8-(1-amino-2-hydroxy-ethyl)-1-[(4-chloro-1H-indol-2-yl)methyl]-3,7-dimethyl-purine-2,6-dione]"
14,0.01 to 1 µM,"Cn1c(Nc2cccc([C@@H]3C[C@H]3C(=O)O)n2)nc2c1c(=O)n(Cc1cc3c(Cl)cccc3[nH]1)c(=O)n2C (racemic) [Example 315, (±)-trans-2-[6-[[1-[(4-chloro-1H-indol-2-yl)methyl]-3,7-dimethyl-2,6-dioxo-purin-8-yl]amino]-2-pyridyl]cyclopropanecarboxylic acid]"
15,0.01 to 1 µM,"CCc1cccc2cc(Cn3c(=O)c4c(nc(C(C)N)n4C)n(C)c3=O)ccc12 (stereo not shown) [Example 463, 8-(1-aminoethyl)-1-((5-ethylnaphthalen-2-yl)methyl)-3,7-dimethyl-1H-purine-2,6(3H,7H)-dione]"
16,0.01 to 1 µM,"Cn1c(Nc2cccnn2)nc2c1c(=O)n(Cc1ccc(Cl)c(Cl)c1)c(=O)n2C [Example 122, 1-(3,4-dichlorobenzyl)-3,7-dimethyl-8-(pyridazin-3-ylamino)-1H-purine-2,6(3H,7H)-dione]"
17,0.01 to 1 µM,"Cn1c(Nc2cccc(CC(=O)O)c2)nc2c1c(=O)n(Cc1cc3c(Cl)cccc3[nH]1)c(=O)n2C [Example 339, 2-(3-((1-((4-chloro-1H-indol-2-yl)methyl)-3,7-dimethyl-2,6-dioxo-2,3,6,7-tetrahydro-1H-purin-8-yl)amino)phenyl)acetic acid]"
